Laboratory results published in patent US5545647A, “3-phenylpyrrolidine derivatives” (Mitsubishi Chemical Corporation, priority 1994, dated 1996).

Tested on: PDE IV
Assay: not given
Settings: Adv. Second Messenger Phosphoprotein Res., 22, 1 (1988); cited from earlier work

| Structure (SMILES) | specific inhibition to PDE IV |
| --- | --- |
| COc1ccc(C2CNC(=O)C2)cc1OC1CCCC1 (centres unmarked) [roliplam, reference compound] | specific inhibition to PDE IV |

Tested on: Phosphodiesterase (PDE) IV
Assay: Action to Phosphodiesterase (PDE) IV Enzyme Activities (3H-cAMP hydrolysis, enzyme from U-937 cells)
Assay type: biochemical
Settings: human histiocytic lymphoma (U-937) cytoplasm fraction enzyme; 0.4 μM 3H-cAMP; pH 8.0; 15 minutes at 30° C.; read-out: PDE IV inhibitory activity IC50
Procedure: Action to Phosphodiesterase (PDE) IV Enzyme Activities
Enzyme was partialy purified from human histiocytic lymphoma(U-937) cytoplasm fraction by means of the Q-sepharose column according to the method of Nicholson and collaborators [Br. J. Pharmacol., 97, 889 (1989)], and was reacted in a solution of 0.1 mg/ml BSA (bovine serum albumin), 1 mM EDTA (ethylenediaminetetra acetic acid), 5 mM MgCl2 and 50 mM Tris-buffer (pH 8.0) for 15 minutes at 30° C. using 0.4 μM ^3 H-cAMP as substrate according to the method of Hidaka and collaborators [Biochem. Med., 10, 301 (1974)]. ^3 H-5'-AMP generated was separated by means of the cation exchange column, and the enzyme activity was determined by measuring a radioactivity amount.
A test compound was added. After incubation for 15 minutes at 30° C., the substrate was added. Inhibition ratios were derived for respective concentrations assuming that the reaction without the test compound was 100%. By using the probit analysis, the concentration (IC50) showing the inhibition rate of 50% was derived.

| Structure (SMILES) | IC50 [nM] |
| --- | --- |
| COc1ccc(C2CCN(C(=O)OCc3cccnc3)C2)cc1OC1CCCC1 (racemic) [Compound No. 13, (±)-3-(3-cyclopentyloxy-4-methoxyphenyl)-l-(3pyridylmethoxycarbonyl) pyrrolidine] | 3.3 |
| COc1ccc(C2CCN(C(=O)OCc3cccnc3)C2)cc1OC1CCCC1 (single isomer, unassigned; (-)) [Compound No. 48, (-)-3-(3-cyclopentyloxy-4-methoxyphenyl)-1-(3-pyridylmethoxycarbonyl) pyrrolidine] | 1.1 |
| COc1ccc(C2CCN(C(=O)OC(C)(C)C)C2)cc1OC1CCCC1 (centres unmarked) [Compound No. 1] | 10 |
| CCOC(=O)N1CCC(c2ccc(OC)c(OC3CCCC3)c2)C1 (centres unmarked) [Compound No. 4, 3-(3-cyclopentyloxy-4-methoxyphenyl)-1-(ethoxycarbonyl) pyrrolidine] | 11 |
| COc1ccc(C2CCN(C(=O)OCc3ccccc3)C2)cc1OC1CCCC1 (centres unmarked) [compound 3] | 6 |
| CCCCOC(=O)N1CCC(c2ccc(OC)c(OC3CCCC3)c2)C1 (centres unmarked) [compound 6] | 6 |
| COc1ccc(C2CCN(C(=O)c3ccccc3)C2)cc1OC1CCCC1 (centres unmarked) [compound 7] | 20 |
| COc1ccc(C2CCN(C(=O)OC(C)(C)C)C2)cc1OC1CCOC1 (centres unmarked) [compound 8] | 19 |
| COc1ccc(C2CCN(C(=O)OCc3ccc[n+]([O-])c3)C2)cc1OC1CCCC1 (centres unmarked) [compound 17] | 23 |
| COc1ccc(C2CCN(C(=O)OCc3ccncc3)C2)cc1OC1CCCC1 (centres unmarked) [compound 19] | 3.8 |
| COc1ccc(C2CCN(C(=O)OCc3ccccn3)C2)cc1OC1CCCC1 (centres unmarked) [compound 24] | 2.3 |
| COc1ccc(C2CCN(C(=O)OCc3cccc[n+]3[O-])C2)cc1OC1CCCC1 (centres unmarked) [compound 26] | 8.8 |
| COc1cc2c(cc1OC)CN(C(=O)N1CCC(c3ccc(OC)c(OC4CCCC4)c3)C1)CC2 (centres unmarked) [compound 32] | 25 |
| COc1ccc(C2CCN(C(=O)OCCc3ccccn3)C2)cc1OC1CCCC1 (centres unmarked) [compound 36] | 11 |
| COc1ccc(C2CCN(C(=O)OCc3ccnc(Cl)c3)C2)cc1OC1CCCC1 (centres unmarked) [compound 37] | 19 |
| COc1ccc(C2CCN(C(=O)OCc3ccc(Cl)nc3)C2)cc1OC1CCCC1 (centres unmarked) [compound 38] | 23 |
| COc1ccc(C2CCN(C(=S)OCc3cccnc3)C2)cc1OC1CCCC1 (centres unmarked) [compound 40] | 10 |
| COc1ccc(C2CCN(C(=O)OCc3cccnn3)C2)cc1OC1CCCC1 (centres unmarked) [compound 42] | 8 |
| COc1ccc(C2CNC(=O)C2)cc1OC1CCCC1 (centres unmarked) [roliplam, reference compound] | 300 |
